Data reported in US20250270227A1, “CAMPTOTHECIN DERIVATIVE, AND PHARMACEUTICAL COMPOSITION AND USE THEREOF” (SIMCERE ZAIMING PHARMACEUTICAL CO., LTD., priority 2021, published 2025).
Where two headings read alike, the source gives them in different places.

Assays:
Format in all cases: cell-based
[1] = system: Human colorectal cancer cell line HCT116; assay: Test 1 of anti-proliferative activity against tumor cells (Cell-Titer Glo)
How it was run: (§1)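 HCT116, SKBR3 and OVCAR3 cells seeded 24 h, then treated with 9-point 3-fold dilutions (final 0-300 nM); HCT116 incubated 3 days, SKBR3 and OVCAR3 5 days at 37° C, 5% CO2. Viability by Cell-Titer Glo luminescence, inhibition normalised to DMSO and no-cell wells, IC50 fitted.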

[2] = system: human ovarian cancer cell line OVCAR3; assay: as above
How it was run: as §1

[3] = system: human breast cancer cell line SKBR3; assay: as above
How it was run: as §1

[4] = system: human non-small cell lung cancer cell line A549; assay: Test 2 of anti-proliferative activity against tumor cells (Cell-Titer Glo)
Method: (§2) Cell culture: SK-OV-3 cells were cultured in McCoy's 5a medium containing 10% fetal bovine serum+1% penicillin-streptomycin, PA-1 cells were cultured in MEM medium containing 10% fetal bovine serum+1% MEM NEAA+1% sodium pyruvate+1% penicillin-streptomycin, NCI-H82 cells and MDA-MB-231 cells were cultured in 1640 medium containing 10% fetal bovine serum+1% penicillin-streptomycin, A549 cells were cultured in DMEM medium containing 10% fetal bovine serum+1% penicillin-streptomycin, all under conditions of 37° C. and 5% CO2. Cells in logarithmic growth phase were suitable for the experiment.
(§3) Detection of cell proliferation activity: The inhibitory activity of the compounds on the proliferation of the five cell lines SK-OV-3, PA-1, NCI-H82, MDA-MB-231 and A549 was detected using Cell-Titer Glo reagent. SK-OV-3 cell (1000 cells per well), PA-1 cells (800 cells per well), NCI-H82 cells (5000 cells per well), MDA-MB-231 cells (3000 cells per well) and A549 cells (400 cells per well) were seeded in 96-well plates and cultured at 37° C. and 5% CO2 for 24 h. The compound to be tested was dissolved in DMSO to a concentration of 1 mM, then subjected to gradient dilution with DMSO and corresponding medium, and transferred to 96-well cell plates to a final concentration of 300 nM (initial concentration), with 3-fold dilution and a total of 9 concentration points. The cells were cultured at 37° C. and 5% CO2 for additional 5 days. The cell viability was detected by adding Cell-Titer Glo reagent.
(§4) Additionally, a negative control group and a positive control group were provided as Bottom and Top, respectively. In the negative control group, the cells were not added, only the same volume of medium was added, and other operations were consistent with those in the experimental group; in the positive control group, the test compound was not added, only the same volume of DMSO was added, and other operations were consistent with those in the experimental group.
(§5) Data analysis: The % compound inhibition was calculated, and fitting was performed to obtain IC50 of the compound.
(§6) % Compound inhibition=1−100%*(Signal−Bottom)/(Top−Bottom).
(§7) Signal represents the signal value of the experimental group, Bottom represents the average signal value of the negative control group, and Top represents the average signal value of the positive control group.

[5] = system: human small cell lung cancer cell line NCI-H82; assay: as above; conditions: read-out: NCI-H82 Anti-proliferative activity IC50, NCI-H82 cells, 5 days, Cell-Titer Glo
Method: as §2, §3, §4, §5, §6, §7

[6] = system: human ovarian cancer cell line PA-1; assay: as above
Method: as §2, §3, §4, §5, §6, §7

[7] = system: human breast cancer cell line MDA-MB-231; assay: as above; conditions: Homo sapiens, MDA-MB-231, 120 h
Method: as §2, §3, §4, §5, §6, §7

[8] = system: Human ovarian cancer cell line SK-OV-3; assay: as above
Method: as §2, §3, §4, §5, §6, §7

[9] = Homo sapiens, HCT-116, 72 h, read-out: HCT116 Anti-proliferative activity IC50 (nM), HCT116 cells, cultured 3 days with compound, Cell-Titer Glo
[10] = Homo sapiens, OVCAR-3, 120 h, OVCAR3 cells, cultured 5 days with compound, Cell-Titer Glo, read-out: OVCAR3 Anti-proliferative activity IC50
[11] = Homo sapiens, SK-BR-3, 120 h, read-out: SKBR3 Anti-proliferative activity IC50 (nM), SKBR3 cells, cultured 5 days with compound, Cell-Titer Glo
[12] = Homo sapiens, A549, 120 h, read-out: A549 Anti-proliferative activity IC50 (nM), A549 cells, 5 days, Cell-Titer Glo
[13] = Homo sapiens, PA-1, 120 h, read-out: PA-1 Anti-proliferative activity IC50 (nM), PA-1 cells, 5 days, Cell-Titer Glo
[14] = read-out: MDA-MB-231 Anti-proliferative activity IC50 (nM)
[15] = Homo sapiens, SK-OV-3, 120 h, SK-OV-3 cells, 5 days, Cell-Titer Glo, read-out: SK-OV-3 Anti-proliferative activity IC50
[16] = MDA-MB-231 cells, 5 days, Cell-Titer Glo, read-out: MDA-MB-231 Anti-proliferative activity IC50
[17] = Homo sapiens, HCT-116, 72 h, HCT116 cells, cultured 3 days with compound, Cell-Titer Glo, read-out: HCT116 Anti-proliferative activity IC50
[18] = Homo sapiens, SK-BR-3, 120 h, SKBR3 cells, cultured 5 days with compound, Cell-Titer Glo, read-out: SKBR3 Anti-proliferative activity IC50
[19] = Homo sapiens, PA-1, 120 h, PA-1 cells, 5 days, Cell-Titer Glo, read-out: PA-1 Anti-proliferative activity IC50
[20] = Homo sapiens, SK-OV-3, 120 h, read-out: SK-OV-3 Anti-proliferative activity IC50 (nM)

Row | Compound | IC50 [1, 9] | IC50 [2, 10] | IC50 [3, 11] | IC50 [4, 12] | IC50 [5] | IC50 [6, 13] | IC50 [7, 14] | IC50 [8, 15] | IC50 [7, 16] | IC50 [1, 17] | IC50 [3, 18] | IC50 [6, 19] | IC50 [8, 20] | further results
1 | CC[C@@]1(O)C(=O)OCc2c1cc1n(c2=O)Cc2c-1nc1cc3c(cc1c2CNC(=O)C(O)C1CC1)OCO3 (single isomer, unassigned) [Compound 14-P1] | 9.8 nM | 0.6 nM | 2.1 nM | 10.2 nM | 2.2 nM | 0.7 nM | 7.5 nM | 2.2 nM | – | – | – | – | – | –
2 | CC[C@@]1(O)C(=O)OCc2c1cc1n(c2=O)Cc2c-1nc1cc3c(cc1c2CNC(=O)C(O)C1CC1)OCO3 (single isomer, unassigned) [Compound 14-P2] | – | – | – | – | 4.7 nM | – | – | – | 8.8 nM | – | – | – | – | IC50 ([1]; read-out: HCT116 Anti-proliferative activity IC50, HCT116 cells, cultured 3 days with compound, Cell-Titer Glo): 12.4 nM; IC50 ([2]; OVCAR3 cells, cultured 5 days with compound, Cell-Titer Glo, read-out: OVCAR3 Anti-proliferative activity IC50): 1 nM; IC50 ([3]; read-out: SKBR3 Anti-proliferative activity IC50, SKBR3 cells, cultured 5 days with compound, Cell-Titer Glo): 3.5 nM; IC50 ([4]; read-out: A549 Anti-proliferative activity IC50, A549 cells, 5 days, Cell-Titer Glo): 14.3 nM; IC50 ([6]; read-out: PA-1 Anti-proliferative activity IC50, PA-1 cells, 5 days, Cell-Titer Glo): 0.9 nM; IC50 ([8]; SK-OV-3 cells, 5 days, Cell-Titer Glo, read-out: SK-OV-3 Anti-proliferative activity IC50): 3.2 nM
3 | CC[C@@]1(O)C(=O)OCc2c1cc1n(c2=O)Cc2c-1nc1cc3c(c(F)c1c2CNC(=O)[C@@H](O)C1CC1)OCO3 (single isomer, unassigned) [Compound 37-P1] | – | 0.5 nM | – | – | – | – | – | 2.1 nM | 13.2 nM | 4.8 nM | 2.1 nM | 0.9 nM | – | IC50 ([4]; Homo sapiens, A549, 120 h, A549 cells, 5 days, Cell-Titer Glo, read-out: A549 Anti-proliferative activity IC50): 9.1 nM
4 | CC[C@@]1(O)C(=O)OCc2c1cc1n(c2=O)Cc2c-1nc1cc3c(cc1c2CNC(=O)C(O)C1CC1)OCO3 (stereo partly drawn) [Compound 14, 2-cyclopropyl-N-(((S)-7-ethyl-7-hydroxy-8,11-dioxo-7,8,11,13-tetrahydro-10H-[1,3]dioxolo[4,5-g]pyrano[3′,4′:6,7]indolizino[1,2-b]quinolin-14-yl)methyl)-2-hydroxyacetamide] | 8.4 nM | – | 2.2 nM | 9.7 nM | – | – | – | – | 10.4 nM | – | – | 1 nM | 3 nM | IC50 ([2]; Homo sapiens, OVCAR-3, 120 h, read-out: OVCAR3 Anti-proliferative activity IC50 (nM)): 0.9 nM; IC50 ([5]; Homo sapiens, 120 h): 3.9 nM
5 | [2H]C1([2H])Oc2cc3nc4c(c(CNC(=O)C(O)C5CC5)c3cc2O1)Cn1c-4cc2c(c1=O)COC(=O)[C@]2(O)CC (stereo partly drawn) [Compound 39, 2-cyclopropyl-N-(((S)-7-ethyl-7-hydroxy-8,11-dioxo-7,8,11,13-tetrahydro-10H-[1,3]dioxolo[4,5-g]pyrano[3′,4′:6,7]indolizino[1,2-b]quinolin-14-yl-2,2-d2)methyl)-2-hydroxyacetamide] | – | 1 nM | – | 19.1 nM | – | 1.5 nM | 26.4 nM | – | – | 9.5 nM | 2.9 nM | – | 2.6 nM | –
